Consider three molecules from patent US20090270440A1, “BIOAVAILABILITY OF ACTIVE SUBSTANCES HAVING AN AMIDINE FUNCTION IN MEDICAMENTS” (Drite Patentportfolio Beteilligungsgesellschaft mbH & Co. KG, priority 2006, published 2009).

Data set [1] is described as follows: Oral bioavailability and metabolism study of N,N′-dihydroxybenzamidine in pigs (plasma levels by HPLC). In kind it is in vivo. The method, then:
Metabolism of N,N′-dihydroxybenzamidine to benzamidine in vivo proceeds in the following way:
In order to be able to ascertain the exact dosage of the substances, the animals were weighed once a week. The daily weight gain was calculated from the data. The substances to be administered orally were mixed into the moistened, ground feed concentrate. The substances given intravenously were dissolved in 0.9% NaCl solution in order to avoid hemolysis.
Directly before injection into the indwelling vein catheter, the solution was filtered in order to avoid induction of thrombus formation by any undissolved portions. The injection was followed by flushing with at least 10 ml of 0.9% NaCl solution again. The substance was administered in the morning on each occasion. A washout period took place the next day on each occasion in order to ensure complete excretion of the medicinal substance.
The orally administered doses of N,N′-dihydroxy-benzamidine were in each case 10 mg/kg of body weight (BW). The concentration of the substances administered intravenously as bolus was 2 mg/kg BW. Benzamidine and N,N′-dihydroxybenzamidine were likewise administered intravenously. The samples were taken at previously fixed times. The experimental period for one condition lasted one day. The blood samples were obtained over a period of 24 hours after administration of the substance. After oral administration, the samples were taken after 0, 30, 60, 90, 120, 150, 180, 240, 360, 480, 720 and 1440 minutes. After intravenous administration, an additional sample was taken after 5 and 15 minutes. The whole blood obtained was transferred into heparin tubes and centrifuged (4° C., 10 min, 1500 g). After centrifugation, about 4 ml of plasma were removed as supernatant, pipetted into Eppendorf vessels and frozen at −80° C. The plasma samples were slowly thawed and then centrifuged at 7000 rpm for 3 minutes, worked up by solid-phase extraction and passed on for HPLC.

The conditions of data set [2]: literature value (Clement, Lopian 2003); cited from earlier work.

As to `O/N=C(/NO)c1ccccc1` [N,N′-dihydroxybenzamidine], the “Reduction of prodrug to the active form (amidine) in the blood” value in data set [1] (after oral administration) is given as “rapidly reduced to the active form”. Further, in data set [1] (i.v. 2 mg/kg BW), the “Metabolite benzamide oxime in plasma after injection” value was “benzamide oxime also being detectable” and the “Reduction of prodrug to the amidine after injection” value was “rapidly reduced to the amidine”. Moreover, in data set [1] (oral 10 mg/kg BW), the “Absorption after oral administration” value is on record as “almost completely absorbed”.
Regarding `N=C(N)c1ccc(CNC(=O)[C@@H]2CCN2C(=O)[C@H](NCC(=O)O)C2CCCCC2)cc1` [melagatran], the Oral bioavailability in data set [2] was 7%.
`CCOC(=O)CN[C@@H](C(=O)N1CC[C@H]1C(=O)NCc1ccc(/C(N)=N\O)cc1)C1CCCCC1` [ximelagatran]: the Oral bioavailability in data set [2] was 14%.
